Data taken from patent US7994160B2, “Pyridazine compounds as glycogen synthase kinase 3 inhibitors” (Abbott GmbH & Co. KG, priority 2005, dated 2011).

What was measured:
[1] = target: human Glycogen Synthase Kinase-3 beta (hGSK-3β) (Homo sapiens, UniProt P49841); assay: Biochemical hGSK-3Beta assay (33P-ATP phosphorylation of biotinylated peptide substrate); details: 10 μM ATP, 30 minutes at room temperature, read-out: GSK-3β IC50
Procedure: Methods—Biochemical hGSK-3Beta Assay
Compounds were tested for their ability to inhibit human Glycogen Synthase Kinase-3 beta (hGSK-3β) to phosphorylate biotin-[…](pS)EDEEE. Compounds were incubated with 0.5 μCi 33P-ATP, 10 μM ATP, 0.0125 U hGSK-3β (Upstate cell signaling solutions) and 1 μM substrate (biotin-[…](pS)EDEEE) in 50 mM HEPES, 10 mM MgCl2, […], 1 mM DTT, 0.0075% Triton, 2% DMSO (total volume 50 μL) for 30 minutes at room temperature. The incubation was stopped by addition of an equal volume of 100 mM EDTA, 4M NaCl. 80 μL of this mixture was added to streptavidin-coated Flashplates (PerkinElmer). Following a wash step, 33P incorporation was quantified on a MicroBeta microplate liquid scintillation counter (PerkinElmer). IC50's were determined by fitting a sigmoidal dose-response curve to the counts obtained at the different concentrations in GraphPad Prism.

[2] = test system: β-catenin-modulated gene transcription; assay: β-Catenin reporter-gene assay (LEF/TCF TOPFLASH/FOPFLASH luciferase); format: cell-based; details: human neuroblastoma cells, 24 h; symbols +/++/+++ not defined
Procedure: Methods—β-Catenin Reporter-Gene Assay
Compounds were tested for their ability to modulate β-catenin-modulated gene transcription in a LEF/TCF (T-cell factor) reporter gene assay. […] human neuroblastoma cells were transiently transfected with 80 ng/well TOPFLASH plasmid (Up-state cell signaling solutions) containing two sets of three copies of the TCF binding site upstream of the Thymidine Kinase minimal promoter and firefly Luciferase open reading frame or with 80 ng/well FOPFLASH plasmid (Upstate cell signaling solutions) containing three copies of a mutated TCF binding site upstream of the Thymidine Kinase minimal promoter and firefly Luciferase open reading frame. In addition all cells were transiently transfected with the 20 ng/well pRL-TK plasmid (Promega) containing the herpes simplex virus thymidine kinase promoter to provide low to moderate levels of Renilla Luciferase expression. Transfection medium was exchanged for serum-free medium containing the test substance and incubated for 24 h at 37 degreed C. The incubation was stopped and quantified using the Dual Glo Luciferase Assay (Promega) as indicated and quantified on a Pherastar reader (BMG).
Firefly Luciferase activity was normalised for Renilla Luciferase activity per well. Subsequently, the normalised TOPFLASH response was compared to the normalised FOPFLASH response, thus giving the LEF/TCF specific signal. […]

Sequence of human Glycogen Synthase Kinase-3 beta (hGSK-3β) (P49841 whole entry): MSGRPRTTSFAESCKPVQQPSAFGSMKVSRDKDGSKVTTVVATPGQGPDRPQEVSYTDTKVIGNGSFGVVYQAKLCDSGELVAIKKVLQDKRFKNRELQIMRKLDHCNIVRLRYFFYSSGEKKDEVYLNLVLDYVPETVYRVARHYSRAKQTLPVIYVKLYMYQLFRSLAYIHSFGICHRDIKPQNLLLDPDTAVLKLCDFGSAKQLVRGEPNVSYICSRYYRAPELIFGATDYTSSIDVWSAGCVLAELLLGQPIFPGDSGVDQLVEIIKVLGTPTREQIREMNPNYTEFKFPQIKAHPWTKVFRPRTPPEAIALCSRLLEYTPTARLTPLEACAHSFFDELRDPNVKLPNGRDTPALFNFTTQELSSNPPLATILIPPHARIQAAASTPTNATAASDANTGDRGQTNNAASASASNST

IC50 [1] [nM]	SMILES	Cellular Activity in GSK-3β TOPFLASH assay [2]
625	O=C1Nc2cc([N+](=O)[O-])ccc2Nc2nnc(Cl)cc21 [Example 4, 2-Chloro-8-nitro-5,10-dihydro-3,4,5,10-tetraaza-dibenzo[a,d]cyclohepten-11-one]	
57000	NC(=O)c1cccc2c1Nc1ccccc1C(=O)N2 [Example 6, 11-Oxo-10,11-dihydro-5H-dibenzo[b,e][1,4]diazepine-6-carboxylic acid amide, reference compound]	INACTIVE
101	O=C1Nc2ncccc2Nc2nnc(Cl)cc21 [Example 7, 8-Chloro-5,10-dihydro-1,5,6,7,11-pentaaza-dibenzo[a,d]cyclohepten-11-one]	
45	C=Cc1cc2c(nn1)Nc1ccccc1NC2=O [Example 10, 2-Vinyl-5,10-dihydro-3,4,5,10-tetraaza-dibenzo[a,d]cyclohepten-11-one]	
